We go through three molecules from patent US20120270943A1 (priority 2011, published 2012).

One data set has as its system pituitary gland; testes. Conditions: in vivo; cited from earlier work.
The subject of a further data set is humans. Conditions: cited from earlier work.
Data set [1] is described as follows: administration of D-aspartic acid hydrochloride and/or ethyl ester hydrochloride. The format is in vivo. Conditions: administration by ingestion, injection or nasal spray, 10 mg to 100 g per day. As for the experimental part:
The D-aspartic acid hydrochloride or D-aspartic acid ethyl ester hydrochloride are administered by ingestion of pills, capsules, powdered drink mixes, beverages, confectionaries, syrups, and/or chewable tablets, or by injection of an aqueous solution, or via a nasal spray.

The nature of a further data set: water solubility. The format is physicochemical.

For `N[C@H](CC(=O)O)C(=O)O` [D-aspartic acid], in the data set on pituitary gland; testes, the “effect in the testes upon testosterone production” value is “direct stimulating effect”; the “release of Luteinizing Hormone (LH) and Growth Hormone (GH) from the pituitary gland” value is given as “stimulate the release”. Further, in the data set with humans (oral, almost four (4) grams a day, men), the LH levels entry is reported as “increased significantly”. Besides, the “rise of testosterone, level greater than day zero” value with humans (oral, almost four (4) grams a day, peak on day twelve (12), twenty-three (23) men) is listed as 42%. In addition, the “levels of testosterone after discontinuation” value in the data set with humans (three (3) days after discontinuation) is listed as “still significantly increased”.

In the case of `Cl.N[C@H](CC(=O)O)C(=O)O` [D-aspartic acid hydrochloride], in data set [1], the “LH and HGH levels” value was “increase”; the libido and/or mood result was “improves/increases”; the “strength, muscle mass, endurance and rate of recovery” value was “increases”; the testosterone result is listed as “increase”.

Turning to `CCOC(=O)C[C@@H](N)C(=O)OCC.Cl` [D-aspartic acid diethyl ester hydrochloride], in data set [1], the “LH and HGH levels” value is “increase”; the libido and/or mood entry is “improves/increases”; the “strength, muscle mass, endurance and rate of recovery” value is “increases”; the testosterone entry is on record as “increase”. The “water solubility (in words)” value in the data set “water solubility” is given as “high water solubility”.
